Assay [1] concerns WI-38 (human fetal lung fibroblast cells). The assay is described as follows: Proliferation assay (CellTiter-Glo). In kind it is cell-based. Particulars: MTAP WT; read-out: IC50, anti-proliferation WI-38. As for the experimental part: (§1) HCT116 colon carcinoma parental (WT) cells with MTAP ^−/− isogenic clone were established by KYinno Biotechnology Co., Ltd. (Beijing, China). A549, MIA PaCa‐2, and WI‐38 cell lines were obtained from ATCC. NCI‐H838 was obtained from Cobioer Biosciences. HCT116 WT and KO MTAP cells were cultured in McCoy's 5A media containing 10% FBS. A549 cells were cultured in DMEM media containing 10% FBS. MIA PaCa‐2 cells were cultured in DMEM media containing 10% FBS and 2.5% horse serum. NCI‐H838 cells were cultured in PRMI 1640 media containing 10% FBS. WI‐38 cells were cultured in EMEM media containing 10% FBS.
(§2) Cells were plated in 96‐well cell culture plates and allowed to attach overnight at 37°C in 5% CO2. Compounds diluted in DMSO were added to cells in a dose–response format for 6 days. The final concentration of DMSO was 0.1% in media. Cell proliferation was measured using CellTiter‐Glo Cell Viability Assay (Promega). The IC50 values were calculated using the GraphPad Prism 9. Drug combination effects were analyzed using Combenefit software.[45]

A further assay has as its system NCI-H838. The assay is described as follows: Proliferation assay (CellTiter-Glo). In kind it is cell-based. To be noted: Homo sapiens, NCI-H838, 144 h; MTAP-deleted, 6-day; read-out: IC50, anti-proliferation NCI-H838. As for the experimental part: as §1, §2
In another assay the test system is HCT116 WT cells. The assay is described as follows: Proliferation assay (CellTiter-Glo). Format: cell-based. Particulars: Homo sapiens, HCT-116, 144 h; 6-day treatment; read-out: IC50, anti-proliferation HCT116 WT. Here is the method: as §1, §2
The subject of the next assay is MIA PaCa-2. As to the kind of experiment: Proliferation assay (CellTiter-Glo). Particulars: Homo sapiens, MIA PaCa-2, 144 h; MTAP-deleted, 6-day; read-out: IC50, anti-proliferation MIA PaCa-2. In kind it is cell-based. Here is the method:
as §1, §2

In a further assay the test system is A549. The assay is described as follows: Proliferation assay (CellTiter-Glo). Format: cell-based. Particulars: Homo sapiens, A549, 144 h; MTAP-deleted, 6-day; read-out: IC50, anti-proliferation A549. As for the experimental part:
as §1, §2
A general note: ATP-based viability assays read luminescence as a measure of living cells.

Assay [2] concerns HCT116 MTAP−/− cells. As to the kind of experiment: Proliferation assay (CellTiter-Glo). Format: cell-based. Here is the method: as §1, §2
Another assay deals with HRH1 (Homo sapiens, UniProt P35367). The assay is described as follows: Mini-profiling panel, GPCR. Format: cell-based. Particulars: GPCR Targets.
Chain of HRH1 (P35367 whole entry, species assumed): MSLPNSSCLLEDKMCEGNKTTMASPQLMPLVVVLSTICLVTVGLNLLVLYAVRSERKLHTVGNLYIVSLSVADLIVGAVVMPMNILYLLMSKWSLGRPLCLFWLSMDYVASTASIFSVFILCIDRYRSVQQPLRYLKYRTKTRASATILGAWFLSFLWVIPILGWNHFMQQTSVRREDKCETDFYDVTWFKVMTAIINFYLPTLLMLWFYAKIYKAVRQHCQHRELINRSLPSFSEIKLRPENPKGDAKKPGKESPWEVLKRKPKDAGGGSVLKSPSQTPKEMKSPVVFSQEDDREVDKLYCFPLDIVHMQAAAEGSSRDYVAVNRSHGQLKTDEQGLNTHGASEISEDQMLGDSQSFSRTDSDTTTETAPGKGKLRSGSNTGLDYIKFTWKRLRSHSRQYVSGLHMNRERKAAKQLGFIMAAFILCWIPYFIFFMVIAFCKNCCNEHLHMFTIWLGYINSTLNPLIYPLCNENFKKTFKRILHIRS
For a further assay, the target named is CCKAR (Homo sapiens, UniProt P32238). The assay is described as follows: Mini-profiling panel, GPCR. Particulars: GPCR Targets. Format: cell-based.
Chain of CCKAR (P32238 whole entry, species assumed): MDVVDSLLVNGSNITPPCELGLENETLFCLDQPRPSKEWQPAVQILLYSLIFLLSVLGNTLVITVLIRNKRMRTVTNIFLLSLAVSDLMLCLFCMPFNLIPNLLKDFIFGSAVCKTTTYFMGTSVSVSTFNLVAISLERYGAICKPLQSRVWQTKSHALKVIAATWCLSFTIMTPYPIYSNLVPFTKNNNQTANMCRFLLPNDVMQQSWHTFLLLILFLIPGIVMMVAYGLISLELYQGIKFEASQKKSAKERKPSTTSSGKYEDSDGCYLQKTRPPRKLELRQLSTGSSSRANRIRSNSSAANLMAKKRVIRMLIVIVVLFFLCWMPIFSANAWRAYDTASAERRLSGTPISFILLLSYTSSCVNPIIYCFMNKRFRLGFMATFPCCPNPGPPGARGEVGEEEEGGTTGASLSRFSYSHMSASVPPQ
Assay [3] relates to HCT116 MTAP−/− cells. The assay is described as follows: Intracellular SAM inhibition assay. Format: cell-based. Particulars: Homo sapiens, HCT-116; HCT116 MTAP−/− cells, 6 h treatment; read-out: IC50, cellular SAM levels. Here is the method:
MAT2A inhibition in the cellular environment was monitored by measurement of the abundance of its product SAM in HCT116 MTAP ^−/− cells. HCT116 MTAP ^−/− cells were plated in 96‐well cell culture plates at 50,000 cells per well and allowed to attach overnight at 37°C in 5% CO2. Compounds were added in a dose–response format to generate a 10‐point dose–response curve. Doses were started at a 10 µM top concentration with 1:5 serial dilution. After 6 h of incubation, the medium was removed and cells were extracted with 50% methanol containing 1 M acetic acid for SAM metabolite measurement by UPLC‐MS/MS.
The standard SAM solution was prepared in a surrogate matrix of 50% methanol containing 1 M acetic acid with a concentration range of 3–1000 ng/mL. The quality control sample was prepared in the same surrogate matrix. SAM‐d 3 was used as the internal standard (IS). A Waters UPLC system coupled with a SCIEX Triple Quad™ 6500^+ mass spectrometer […] was used to analyze the samples. Samples were separated on an ACQUITY UPLC® BEH amide column (2.1 × 50 mm, 1.7 µm). The mobile phase consisted of 5% acetonitrile containing 5 mM NH4OAc and 1% (v/v) formic acid (A) and 95% acetonitrile containing 5 mM NH4OAc and 1% (v/v) formic acid (B). […] SAM and SAM‐d 3 were detected with multiple‐reaction monitoring of a mass transition pair at m/z 399.2/250.2 and […], respectively.

The target of another assay is VEGFR2 (Homo sapiens, UniProt P35968). As to the kind of experiment: Mini-profiling panel, kinase. In kind it is biochemical. Particulars: Kinases; read-out: VEGFR2 Inhibitor IC50.
Chain of VEGFR2 (P35968 20-1356, species assumed): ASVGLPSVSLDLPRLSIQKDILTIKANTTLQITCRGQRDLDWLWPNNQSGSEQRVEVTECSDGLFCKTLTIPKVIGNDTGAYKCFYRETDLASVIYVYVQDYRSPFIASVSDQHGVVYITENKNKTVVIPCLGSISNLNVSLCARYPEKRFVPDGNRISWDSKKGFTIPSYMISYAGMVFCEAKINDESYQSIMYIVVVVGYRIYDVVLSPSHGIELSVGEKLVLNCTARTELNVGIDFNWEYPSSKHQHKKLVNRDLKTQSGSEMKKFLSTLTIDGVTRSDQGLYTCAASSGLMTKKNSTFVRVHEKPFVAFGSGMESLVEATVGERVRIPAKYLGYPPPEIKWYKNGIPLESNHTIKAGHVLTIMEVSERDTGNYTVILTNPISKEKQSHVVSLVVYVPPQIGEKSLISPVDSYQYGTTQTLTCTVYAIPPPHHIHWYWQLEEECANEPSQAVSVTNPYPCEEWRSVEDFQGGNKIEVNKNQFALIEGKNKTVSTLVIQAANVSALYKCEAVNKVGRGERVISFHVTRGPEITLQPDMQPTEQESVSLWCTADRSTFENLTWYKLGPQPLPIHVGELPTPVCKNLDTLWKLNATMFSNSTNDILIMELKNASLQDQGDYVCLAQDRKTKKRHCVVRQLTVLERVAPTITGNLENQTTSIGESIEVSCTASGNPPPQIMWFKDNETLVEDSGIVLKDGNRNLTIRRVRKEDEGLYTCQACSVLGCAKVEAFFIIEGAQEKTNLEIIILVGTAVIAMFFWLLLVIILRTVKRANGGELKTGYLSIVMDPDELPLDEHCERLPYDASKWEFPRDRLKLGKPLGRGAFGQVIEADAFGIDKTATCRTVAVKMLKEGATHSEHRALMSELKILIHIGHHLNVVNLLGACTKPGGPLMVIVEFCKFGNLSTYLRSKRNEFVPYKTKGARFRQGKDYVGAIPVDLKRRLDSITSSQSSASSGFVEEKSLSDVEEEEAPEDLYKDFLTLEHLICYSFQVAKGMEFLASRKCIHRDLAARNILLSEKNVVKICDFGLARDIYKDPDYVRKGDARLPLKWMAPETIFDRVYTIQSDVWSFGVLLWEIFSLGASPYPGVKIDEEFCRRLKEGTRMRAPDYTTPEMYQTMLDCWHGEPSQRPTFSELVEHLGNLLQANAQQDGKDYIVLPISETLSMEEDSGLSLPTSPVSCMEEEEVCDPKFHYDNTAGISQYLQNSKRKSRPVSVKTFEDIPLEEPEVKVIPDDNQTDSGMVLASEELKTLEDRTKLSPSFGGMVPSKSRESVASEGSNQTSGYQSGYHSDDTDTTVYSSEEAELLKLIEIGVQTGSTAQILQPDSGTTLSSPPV
Another assay deals with SDMA. The assay is described as follows: Tumor SDMA levels in combination xenograft study. Format: in vivo, mice. To be noted: SCR-7952 0.3 mg/kg alone.
The next assay has as its target AChE (Homo sapiens, UniProt P22303). As to the kind of experiment: Mini-profiling panel, non-kinase enzyme. Format: biochemical. Particulars: Non-Kinase Enzymes; read-out: AChE Inhibitor IC50.
Another assay concerns the target T1, MAT2A (Homo sapiens, UniProt P31153).
T1 construct: purchased Pharmaron 210405‐HWR‐20210429
As to the kind of experiment: MAT2A enzymatic activity, biochemical assay (phosphate release). Here is the method: The test compound was prepared in dimethyl sulfoxide (DMSO). […] Then, 40 µL of enzyme dilution was added and the mixture was incubated for 120 min at room temperature. The enzymatic assay was initiated by adding 40 µL of substrate mix (a final dose of 400 µM ATP and a final dose of 200 µM L‐methionine in assay buffer), and the mixture was incubated for a further 90 min at room temperature. The liberated phosphate released by the enzyme in stoichiometric amounts by the production of SAM was measured using the Phosphate Assay Kit—PiColorLock™ (Abcam, UK). Velocity curves were fit to the standard Michaelis‐Menten equation to yield V max and K m.

The next assay has as its target AR (Homo sapiens, UniProt P10275). The assay is described as follows: Mini-profiling panel, nuclear hormone receptor. In kind it is cell-based. As for the experimental part:
Further insight into selectivity was evaluated in a functional panel of 47 representative targets closely related to human life activities, including G protein‐coupled receptors, transporters, ion channels, kinases, nuclear hormone receptor targets, and nonkinase enzymes (Table S3).

Where only a bound is given, the exact number is not on record here.

One compound from paper PMC11413503, “SCR‐7952, a highly selective MAT2A inhibitor, demonstrates synergistic antitumor activities in combination with the S‐adenosylmethionine‐competitive or the methylthioadenosine‐cooperative protein arginine methyltransferase 5 inhibitors in methylthioadenosine phosphorylase‐deleted tumors” (MedComm, 2024) can be followed below.

T1 sequence (P31153 whole entry): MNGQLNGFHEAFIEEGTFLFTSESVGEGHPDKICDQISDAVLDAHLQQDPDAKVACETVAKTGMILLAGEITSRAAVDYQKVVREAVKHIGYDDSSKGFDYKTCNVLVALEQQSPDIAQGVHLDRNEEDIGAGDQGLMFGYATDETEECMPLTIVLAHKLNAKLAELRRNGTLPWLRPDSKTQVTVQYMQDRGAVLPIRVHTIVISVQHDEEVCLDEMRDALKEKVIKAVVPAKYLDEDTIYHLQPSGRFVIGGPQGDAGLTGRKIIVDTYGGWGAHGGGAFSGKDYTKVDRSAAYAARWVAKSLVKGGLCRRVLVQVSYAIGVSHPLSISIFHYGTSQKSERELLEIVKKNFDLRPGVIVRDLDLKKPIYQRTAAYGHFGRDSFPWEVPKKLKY
Chain of AR (P10275 whole entry): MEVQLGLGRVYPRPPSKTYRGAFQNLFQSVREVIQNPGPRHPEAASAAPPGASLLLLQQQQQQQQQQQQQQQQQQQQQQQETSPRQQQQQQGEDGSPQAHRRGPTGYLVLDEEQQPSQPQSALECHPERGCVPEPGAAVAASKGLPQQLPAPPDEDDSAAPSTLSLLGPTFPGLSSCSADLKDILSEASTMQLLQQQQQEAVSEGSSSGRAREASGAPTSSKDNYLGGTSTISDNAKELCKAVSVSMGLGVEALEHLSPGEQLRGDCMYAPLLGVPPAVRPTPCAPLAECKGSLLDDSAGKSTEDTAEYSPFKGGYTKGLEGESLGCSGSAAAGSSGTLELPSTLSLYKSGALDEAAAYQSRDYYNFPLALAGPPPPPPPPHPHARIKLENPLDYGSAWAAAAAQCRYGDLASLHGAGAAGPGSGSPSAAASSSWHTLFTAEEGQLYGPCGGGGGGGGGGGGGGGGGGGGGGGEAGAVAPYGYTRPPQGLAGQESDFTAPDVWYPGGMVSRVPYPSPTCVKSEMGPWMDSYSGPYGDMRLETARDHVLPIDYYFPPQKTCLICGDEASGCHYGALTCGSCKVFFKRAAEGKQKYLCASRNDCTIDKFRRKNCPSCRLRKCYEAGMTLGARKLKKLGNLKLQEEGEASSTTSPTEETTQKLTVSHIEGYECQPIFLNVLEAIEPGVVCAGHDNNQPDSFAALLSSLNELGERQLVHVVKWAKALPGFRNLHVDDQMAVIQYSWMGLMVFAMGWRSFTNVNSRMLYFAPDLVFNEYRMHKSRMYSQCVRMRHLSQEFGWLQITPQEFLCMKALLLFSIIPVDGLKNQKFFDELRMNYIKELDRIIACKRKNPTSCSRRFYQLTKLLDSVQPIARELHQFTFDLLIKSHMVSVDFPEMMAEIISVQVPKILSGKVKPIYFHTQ
Chain of AChE (P22303 32-614): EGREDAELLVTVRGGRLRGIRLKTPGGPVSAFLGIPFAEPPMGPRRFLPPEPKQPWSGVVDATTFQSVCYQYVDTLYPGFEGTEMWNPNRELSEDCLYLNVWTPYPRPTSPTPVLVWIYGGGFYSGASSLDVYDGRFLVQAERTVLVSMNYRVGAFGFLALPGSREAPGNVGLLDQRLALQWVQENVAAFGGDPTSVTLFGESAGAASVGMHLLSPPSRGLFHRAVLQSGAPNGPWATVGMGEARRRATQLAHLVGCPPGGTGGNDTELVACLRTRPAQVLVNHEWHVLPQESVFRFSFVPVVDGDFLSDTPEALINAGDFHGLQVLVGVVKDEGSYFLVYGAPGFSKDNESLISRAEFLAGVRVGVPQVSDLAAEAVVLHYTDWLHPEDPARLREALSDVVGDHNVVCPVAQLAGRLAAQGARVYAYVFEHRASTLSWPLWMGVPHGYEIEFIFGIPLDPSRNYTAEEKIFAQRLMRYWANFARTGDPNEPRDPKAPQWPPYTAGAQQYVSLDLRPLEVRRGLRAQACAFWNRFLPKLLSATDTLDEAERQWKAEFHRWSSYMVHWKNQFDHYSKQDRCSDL

The term EC50 denotes the concentration that produces a half-maximal response. A word on the Ki: it is the dissociation constant of the complex between target and ligand, obtained from inhibition or displacement. Regarding `Cn1cnc2c(=O)n(-c3cccnc3C3CC3)c3cc(Cl)ccc3c21` [SCR‐7952, 7‐chloro‐5‐(2‐cyclopropylpyridin‐3‐yl)‐1‐methyl‐1,5‐dihydro‐4H‐imidazo[4,5‐c]quinolin‐4‐one], the IC50 turned out to be 4.31 µM in assay [1]; 0.0043 µM in the assay with NCI-H838; 0.488 µM in the assay on HCT116 WT cells; 0.0197 µM with MIA PaCa-2; 0.123 µM in the assay with A549; 0.0344 µM in the assay with HCT116 MTAP−/− cells [2] (Homo sapiens, HCT-116, 144 h, 6-day treatment, read-out: IC50, anti-proliferation HCT116 MTAP−/−). Also, the IC50 is above 10 µM on HRH1 (read-out: HRH1 Antagonism IC50); above 10 µM on CCKAR (read-out: CCKAR Antagonism IC50); 0.0019 µM in the assay with HCT116 MTAP−/− cells [3]; above 10 µM on VEGFR2; above 10 µM on AChE; 0.0187 µM on MAT2A (biochemical assay, read-out: IC50, MAT2A enzyme). At AR, the IC50 was above 10 µM. Besides, the “fold difference of antiproliferative effect of SCR-7952 and AG-270” value in the assay on HCT116 MTAP−/− cells [2] (HCT116 MTAP−/− cells, 34.4 vs. 300.4 nM) is 8.7 fold. Further, the EC50 at HRH1 (read-out: HRH1 Agonism EC50), on CCKAR (read-out: CCKAR Agonism EC50) and on AR was above 10 µM in each case. Further, the “tumor SDMA levels” value in the assay with SDMA was “remarkable reduction”. The “fold more potent than AG-270 on MAT2A enzymatic activity” value on MAT2A was found to be 3.7 fold. The Ki at MAT2A (in the presence of substrate methionine, Michaelis–Menten approach) is 0.0145 µM. Besides, at MAT2A (noncompetitive inhibition for methionine), the α value worked out at 1.193.
